Measured values published in PubChem BioAssay (NCI).
Values joined by “and” are separate entries in the source; they are usually repeats but may differ in a detail not shown here. Equal entries are not always repeated.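 Interpolation was linear, between the two tested concentrations surrounding the appropriate level; five concentrations were tested over 48 hours in 96-well plates. Abbreviation: GI50, concentration required for 50% inhibition of growth. Definition used: TGI = concentration required for complete inhibition of growth.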

Experiments:
Assay in all cases: NCI tumour cell line growth inhibition, 48 h
[1] = system: HCT-15 colon
[2] = system: OVCAR-3 ovarian
[3] = system: HS 578T breast
[4] = system: OVCAR-8 ovarian
[5] = system: NCI-H522 lung
[6] = system: HT29 colon
[7] = system: P388 leukemia
[8] = system: EKVX NSCLC
[9] = system: KM20L2 colon
[10] = system: MOLT-4 leukemia
[11] = system: NCI-H23 lung
[12] = system: NCI/ADR-RES ovarian
[13] = system: HL-60(TB) leukemia
[14] = system: SF-539 CNS
[15] = system: IGROV1 ovarian
[16] = system: HOP-18 NSCLC
[17] = system: HCT-116 colon
[18] = system: SNB-19 CNS
[19] = system: PC-3 prostate
[20] = system: DLD-1 colon
[21] = system: SNB-75 CNS
[22] = system: MDA-MB-231 breast
[23] = system: MDA-N
[24] = system: P388/ADR leukemia
[25] = system: CAKI-1 renal
[26] = system: K-562 leukemia
[27] = system: HOP-62 NSCLC
[28] = system: LOX IMVI melanoma
[29] = system: TK-10 renal
[30] = system: DMS 273 small cell lung
[31] = system: SW-620 colon
[32] = system: U251 CNS
[33] = system: MALME-3M melanoma
[34] = system: SF-295 CNS
[35] = system: 786-0 renal
[36] = system: ACHN renal
[37] = system: CCRF-CEM leukemia
[38] = system: NCI-H226 lung
[39] = system: SN12K1 renal
[40] = system: OVCAR-5 ovarian
[41] = system: DMS 114 small cell lung
[42] = system: MDA-MB-435
[43] = system: UO-31 renal
[44] = system: T-47D breast
[45] = system: MCF7 breast
[46] = system: XF 498 CNS
[47] = system: SN12C renal
[48] = system: SK-MEL-28 melanoma
[49] = system: M14 melanoma
[50] = system: A549 NSCLC
[51] = system: HOP-92 NSCLC
[52] = system: A498 renal
[53] = system: SK-MEL-5 melanoma
[54] = system: KM12 colon
[55] = system: SNB-78 CNS
[56] = system: UACC-257 melanoma
[57] = system: M19-MEL melanoma
[58] = system: RXF 393 renal
[59] = system: HCC-2998 colon
[60] = system: OVCAR-4 ovarian
[61] = system: COLO 205 colon
[62] = system: DU-145 prostate
[63] = system: UACC-62 melanoma
[64] = system: BT-549 breast
[65] = system: SK-OV-3 ovarian
[66] = system: SR leukemia
[67] = system: RPMI-8226 leukemia
[68] = system: SF-268 CNS
[69] = system: SK-MEL-2 melanoma

What does the source list for `COc1ccc2[nH]c3ccc4cc[n+](CCN5CCC(C6CCN(CC[n+]7ccc8ccc9[nH]c%10ccc(OC)cc%10c9c8c7)CC6)CC5)cc4c3c2c1`?
GI50 [1]: 0.266 µM; GI50 [2]: 42.6 µM; TGI [2]: 50 µM and > 76.2 µM; TGI [3]: 50 µM; GI50 [4]: 8.28 µM; TGI [4]: 50 µM and > 100 µM; GI50 [5]: > 50 µM; TGI [5]: > 50 µM and 5.27 µM; GI50 [6]: 0.938 µM; TGI [6]: 31.4 µM and > 100 µM; TGI [7]: > 100 µM; GI50 [8]: 3.19 µM; TGI [8]: > 50 µM and 63.1 µM; TGI [9]: > 100 µM; GI50 [10]: 0.209 µM; TGI [10]: 50 µM and > 100 µM; GI50 [11]: 4.46 µM; TGI [11]: > 100 µM; GI50 [12]: 35.2 µM; TGI [12]: 50 µM and > 46.4 µM; GI50 [13]: 4.47 µM and 0.899 µM; TGI [13]: 50 µM and 8.43 µM; GI50 [14]: 1.26 µM; TGI [14]: 50 µM and > 100 µM; GI50 [15]: 0.269 µM; TGI [15]: 50 µM and > 19 µM; TGI [16]: 15.1 µM; GI50 [17]: 0.374 µM; TGI [17]: 50 µM and > 57.1 µM; GI50 [18]: > 50 µM; TGI [18]: > 70.9 µM; TGI [19]: 50 µM; TGI [20]: > 100 µM; TGI [21]: 50 µM; TGI [22]: 50 µM; TGI [23]: 50 µM; TGI [24]: > 100 µM; GI50 [25]: 10.9 µM; TGI [25]: 50 µM and 68.1 µM; GI50 [26]: 0.164 µM; TGI [26]: 1.41 µM and 7.67 µM; GI50 [27]: 34.4 µM; TGI [27]: 50 µM and > 100 µM; TGI [28]: 50 µM and > 58.6 µM; TGI [29]: 27.2 µM; TGI [30]: > 100 µM; TGI [31]: > 36.9 µM; GI50 [32]: > 50 µM; TGI [32]: > 52.3 µM; TGI [33]: 50 µM; GI50 [34]: 34.5 µM; TGI [34]: 44.8 µM and 42.2 µM; TGI [35]: 50 µM; TGI [36]: 50 µM; GI50 [37]: 0.566 µM; TGI [37]: 25.4 µM and 16.8 µM; TGI [38]: 50 µM; TGI [39]: > 52 µM; GI50 [40]: 39.2 µM; TGI [40]: 50 µM and > 91.1 µM; TGI [41]: 4.08 µM; TGI [42]: > 50 µM; GI50 [43]: 42.5 µM; TGI [43]: 50 µM and > 100 µM; TGI [44]: 50 µM; GI50 [45]: 0.313 µM and 0.488 µM; TGI [45]: 50 µM and > 28.3 µM; TGI [46]: > 75.9 µM; GI50 [47]: 8.76 µM; TGI [47]: 50 µM; GI50 [48]: > 50 µM; TGI [48]: > 50 µM; TGI [49]: > 50 µM; GI50 [50]: 0.747 µM; TGI [50]: 50 µM and > 62.2 µM; GI50 [51]: 27.7 µM; TGI [51]: 28.1 µM and 5.47 µM; GI50 [52]: > 50 µM; TGI [52]: > 53.8 µM; GI50 [53]: 6.7 µM; TGI [53]: 41.3 µM and 60.7 µM; GI50 [54]: 0.631 µM; TGI [54]: 50 µM and > 92.7 µM; TGI [55]: 66.4 µM; GI50 [56]: 12.1 µM; TGI [56]: 50 µM and > 100 µM; TGI [57]: 16.1 µM; GI50 [58]: 38.1 µM; TGI [58]: 50 µM and 10.8 µM; TGI [59]: 14.2 µM and > 100 µM; TGI [60]: 17.7 µM and > 100 µM; TGI [61]: > 50 µM; TGI [62]: 50 µM; GI50 [63]: 31 µM; TGI [63]: 50 µM and 17.7 µM; TGI [64]: 50 µM; GI50 [65]: 33.2 µM; TGI [65]: 45.8 µM and 20.6 µM; TGI [66]: 50 µM; GI50 [67]: 0.367 µM and 0.443 µM; TGI [68]: 50 µM and > 56.9 µM; TGI [69]: > 90.7 µM
